Experimental data as given in ChEMBL document CHEMBL1128795, “N-(Quinuclidin-3-yl)-2-(1-methyl-1H-indol-3-yl)-2-oxo-acetamide: a high affinity 5-HT3 receptor partial agonist” (Bioorg Med Chem Lett, 1995).

Tests used:
[1] = biological target: T1, Alpha-1A adrenergic receptor (Homo sapiens, UniProt P35348); experiment: Binding affinity against Alpha-1A adrenergic receptor
T1 sequence (P35348 whole entry): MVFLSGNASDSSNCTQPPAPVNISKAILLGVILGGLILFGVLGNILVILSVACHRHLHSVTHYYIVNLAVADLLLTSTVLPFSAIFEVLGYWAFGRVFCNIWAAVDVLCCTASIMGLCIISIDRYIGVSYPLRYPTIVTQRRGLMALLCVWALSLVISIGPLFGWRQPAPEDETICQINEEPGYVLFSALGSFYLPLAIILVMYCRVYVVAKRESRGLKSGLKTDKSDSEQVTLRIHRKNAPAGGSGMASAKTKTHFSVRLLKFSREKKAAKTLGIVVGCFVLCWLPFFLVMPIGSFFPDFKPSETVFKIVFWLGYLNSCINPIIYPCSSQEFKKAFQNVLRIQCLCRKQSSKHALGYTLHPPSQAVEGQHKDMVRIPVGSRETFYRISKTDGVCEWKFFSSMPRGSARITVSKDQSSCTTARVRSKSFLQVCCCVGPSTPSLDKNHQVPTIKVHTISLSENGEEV

[2] = biological target: Serotonin 3 (5-HT3) receptor (Rattus norvegicus) (UniProt P35563+Q9JJ16); experiment: Tested for % decrease in heart rate relative to pre-dose control against 2-methyl-5-HT induced bradycardia (von Bezold-Jarisch (B-J) reflex) in anesthetized rats; assay type: functional; parameters: scale not given: the % may be the effect or the level left
[3] = biological target: 5-hydroxytryptamine receptor 1D (Homo sapiens, UniProt P28221); experiment: Binding affinity against 5-Hydroxytryptamine 1D receptor
Chain of 5-hydroxytryptamine receptor 1D (P28221 whole entry): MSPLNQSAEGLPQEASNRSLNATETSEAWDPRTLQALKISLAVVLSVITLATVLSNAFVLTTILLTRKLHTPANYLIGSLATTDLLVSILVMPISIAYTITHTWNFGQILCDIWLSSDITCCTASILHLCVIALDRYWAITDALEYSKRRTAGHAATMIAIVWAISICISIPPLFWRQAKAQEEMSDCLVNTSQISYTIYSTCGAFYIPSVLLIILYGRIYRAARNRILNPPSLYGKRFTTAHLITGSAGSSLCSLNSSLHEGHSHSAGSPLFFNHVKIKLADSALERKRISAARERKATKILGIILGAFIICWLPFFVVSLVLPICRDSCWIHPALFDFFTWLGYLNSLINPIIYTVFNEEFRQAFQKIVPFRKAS

[4] = biological target: D(1A) dopamine receptor (Homo sapiens, UniProt P21728); experiment: Binding affinity against Dopamine D1 receptor
Chain of D(1A) dopamine receptor (P21728 whole entry): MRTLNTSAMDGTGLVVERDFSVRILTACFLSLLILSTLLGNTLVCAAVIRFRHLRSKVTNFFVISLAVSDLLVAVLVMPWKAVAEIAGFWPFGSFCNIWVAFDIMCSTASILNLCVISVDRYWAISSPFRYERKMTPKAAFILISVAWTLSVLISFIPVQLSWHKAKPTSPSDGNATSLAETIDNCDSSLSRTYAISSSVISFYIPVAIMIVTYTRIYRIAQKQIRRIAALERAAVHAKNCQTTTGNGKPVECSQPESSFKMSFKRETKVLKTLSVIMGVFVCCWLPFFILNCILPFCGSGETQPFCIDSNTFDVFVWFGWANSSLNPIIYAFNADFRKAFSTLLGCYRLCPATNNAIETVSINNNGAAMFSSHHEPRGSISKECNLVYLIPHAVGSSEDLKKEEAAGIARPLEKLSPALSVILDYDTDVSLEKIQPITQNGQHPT

[5] = biological target: Muscarinic acetylcholine receptor M3 (Homo sapiens, UniProt P20309); experiment: Binding affinity against Muscarinic M3 receptor
Chain of Muscarinic acetylcholine receptor M3 (P20309 whole entry): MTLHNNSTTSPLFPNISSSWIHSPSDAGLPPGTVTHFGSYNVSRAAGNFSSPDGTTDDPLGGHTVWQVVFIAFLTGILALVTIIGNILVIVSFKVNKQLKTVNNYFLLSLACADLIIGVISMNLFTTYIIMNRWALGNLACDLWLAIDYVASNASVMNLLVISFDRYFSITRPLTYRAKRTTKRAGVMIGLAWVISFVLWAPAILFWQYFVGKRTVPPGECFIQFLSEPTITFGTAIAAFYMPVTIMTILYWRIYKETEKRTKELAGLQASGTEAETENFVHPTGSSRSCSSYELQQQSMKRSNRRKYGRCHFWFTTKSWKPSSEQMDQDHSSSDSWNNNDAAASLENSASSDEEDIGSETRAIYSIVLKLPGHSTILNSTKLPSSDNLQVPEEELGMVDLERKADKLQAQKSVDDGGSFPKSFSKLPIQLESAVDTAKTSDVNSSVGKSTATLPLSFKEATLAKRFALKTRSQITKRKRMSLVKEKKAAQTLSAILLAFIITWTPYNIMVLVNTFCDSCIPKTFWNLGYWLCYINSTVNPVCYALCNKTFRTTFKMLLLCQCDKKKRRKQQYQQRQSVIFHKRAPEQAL

[6] = biological target: T2, Serotonin 3 (5-HT3) receptor (Rattus norvegicus, UniProt P35563+Q9JJ16); experiment: Binding affinity against 5-Hydroxytryptamine 3 receptor; assay type: protein-complex assay
T2 sequence (P35563 whole entry): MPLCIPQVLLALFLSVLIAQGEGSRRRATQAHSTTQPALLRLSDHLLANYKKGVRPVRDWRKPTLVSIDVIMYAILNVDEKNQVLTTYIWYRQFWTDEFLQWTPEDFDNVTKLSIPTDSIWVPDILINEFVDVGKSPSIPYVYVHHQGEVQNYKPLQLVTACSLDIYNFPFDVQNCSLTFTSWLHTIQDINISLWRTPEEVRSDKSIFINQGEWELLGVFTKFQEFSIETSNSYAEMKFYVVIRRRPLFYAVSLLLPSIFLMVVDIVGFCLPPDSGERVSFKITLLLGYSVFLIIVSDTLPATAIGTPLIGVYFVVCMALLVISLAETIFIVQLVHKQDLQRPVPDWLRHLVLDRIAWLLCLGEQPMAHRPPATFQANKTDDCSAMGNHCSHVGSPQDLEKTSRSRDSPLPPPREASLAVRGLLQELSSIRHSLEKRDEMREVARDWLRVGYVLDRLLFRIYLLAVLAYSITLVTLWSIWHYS
T2 sequence (Q9JJ16 whole entry): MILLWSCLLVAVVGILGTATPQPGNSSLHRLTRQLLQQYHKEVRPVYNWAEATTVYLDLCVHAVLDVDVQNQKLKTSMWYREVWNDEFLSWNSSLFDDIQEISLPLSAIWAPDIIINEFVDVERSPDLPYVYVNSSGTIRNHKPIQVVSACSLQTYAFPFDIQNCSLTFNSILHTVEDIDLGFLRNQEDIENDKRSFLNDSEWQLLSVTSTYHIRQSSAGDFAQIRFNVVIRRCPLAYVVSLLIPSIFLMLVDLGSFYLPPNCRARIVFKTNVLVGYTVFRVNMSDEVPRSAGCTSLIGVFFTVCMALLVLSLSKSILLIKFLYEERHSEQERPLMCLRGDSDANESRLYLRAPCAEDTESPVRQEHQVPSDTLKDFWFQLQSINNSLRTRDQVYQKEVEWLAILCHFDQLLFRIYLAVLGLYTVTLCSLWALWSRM

[7] = biological target: T3, Alpha-2A adrenergic receptor (Homo sapiens, UniProt P08913); experiment: Binding affinity against Alpha-2A adrenergic receptor
T3 sequence (P08913 whole entry): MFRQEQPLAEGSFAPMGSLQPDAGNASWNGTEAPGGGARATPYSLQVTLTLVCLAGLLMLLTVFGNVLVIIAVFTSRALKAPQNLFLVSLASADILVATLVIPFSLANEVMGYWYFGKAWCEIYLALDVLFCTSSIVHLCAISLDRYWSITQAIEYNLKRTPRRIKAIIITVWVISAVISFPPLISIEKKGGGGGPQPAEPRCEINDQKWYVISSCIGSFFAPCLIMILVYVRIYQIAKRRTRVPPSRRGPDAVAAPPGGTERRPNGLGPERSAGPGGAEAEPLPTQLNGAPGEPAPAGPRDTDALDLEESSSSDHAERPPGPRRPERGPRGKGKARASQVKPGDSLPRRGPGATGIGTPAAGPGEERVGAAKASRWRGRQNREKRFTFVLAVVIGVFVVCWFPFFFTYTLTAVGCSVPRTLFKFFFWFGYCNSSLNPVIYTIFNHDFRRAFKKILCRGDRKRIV

[8] = species: Rattus norvegicus; experiment: Tested for effective concentration against 5-HT mediated depolarization of isolated rat vagus nerve; assay type: functional
[9] = biological target: Beta-1 adrenergic receptor (Homo sapiens, UniProt P08588); experiment: Binding affinity against Beta-1 adrenergic receptor
Chain of Beta-1 adrenergic receptor (P08588 whole entry): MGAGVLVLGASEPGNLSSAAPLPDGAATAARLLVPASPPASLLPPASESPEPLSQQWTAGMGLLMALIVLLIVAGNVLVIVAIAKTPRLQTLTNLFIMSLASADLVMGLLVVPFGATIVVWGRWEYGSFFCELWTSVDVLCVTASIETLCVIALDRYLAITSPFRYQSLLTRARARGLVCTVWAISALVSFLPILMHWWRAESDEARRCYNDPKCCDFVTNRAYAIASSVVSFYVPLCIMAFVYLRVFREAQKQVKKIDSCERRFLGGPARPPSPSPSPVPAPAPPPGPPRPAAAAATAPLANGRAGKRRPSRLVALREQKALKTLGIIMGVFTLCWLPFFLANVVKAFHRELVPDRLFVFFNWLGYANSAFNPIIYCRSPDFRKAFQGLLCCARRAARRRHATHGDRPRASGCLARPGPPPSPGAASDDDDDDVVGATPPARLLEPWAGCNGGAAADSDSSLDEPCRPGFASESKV

[10] = biological target: T4, Alpha-2B adrenergic receptor (Homo sapiens, UniProt P18089); experiment: Binding affinity against Alpha-2B adrenergic receptor
T4 sequence (P18089 whole entry): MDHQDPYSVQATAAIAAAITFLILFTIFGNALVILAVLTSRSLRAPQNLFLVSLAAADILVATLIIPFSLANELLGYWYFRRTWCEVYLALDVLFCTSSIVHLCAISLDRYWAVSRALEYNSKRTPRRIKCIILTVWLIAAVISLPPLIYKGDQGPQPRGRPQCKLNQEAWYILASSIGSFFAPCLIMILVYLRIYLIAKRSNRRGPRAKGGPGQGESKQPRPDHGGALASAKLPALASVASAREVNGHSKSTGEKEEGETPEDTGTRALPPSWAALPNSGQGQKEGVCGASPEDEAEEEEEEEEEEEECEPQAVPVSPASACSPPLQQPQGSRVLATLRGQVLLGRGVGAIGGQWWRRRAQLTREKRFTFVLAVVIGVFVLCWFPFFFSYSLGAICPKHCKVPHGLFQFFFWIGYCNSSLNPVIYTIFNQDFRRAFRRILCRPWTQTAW

Q: For `Cn1cc(C(=O)C(=O)N[C@@H]2CN3CCC2CC3)c2ccccc21`, which Ki [1] is on record?
A: Its Ki is 25.1 µM.

Q: And the Control [2]?
A: The Control was 33%.

Q: What about the Ki [3] of the same molecule?
A: Its Ki is > 100 µM.

Q: What about the Ki [4] of the same molecule?
A: The Ki was > 100 µM.

Q: And the Ki [5]?
A: Its Ki is 31.6 µM.

Q: What about the Ki [6] of the same molecule?
A: The Ki was 0.0126 µM.

Q: And the Ki [7]?
A: Its Ki is 31.6 µM.

Q: And the EC50 [8]?
A: Its EC50 is 2.14 µM.

Q: What about the Ki [9] of the same molecule?
A: The Ki was > 100 µM.

Q: And the Ki [10]?
A: Its Ki is 25.1 µM.

Q: What does the source list for `Cn1cc(C(=O)C(=O)N[C@H]2CN3CCC2CC3)c2ccccc21`?
A: Ki [1]: > 10 µM; Control [2]: 24%; Ki [3]: 39.8 µM; Ki [4]: > 100 µM; Ki [5]: 50.1 µM; Ki [6]: 0.000251 µM; Ki [7]: 7.94 µM; EC50 [8]: 0.0355 µM; Ki [9]: > 10 µM; Ki [10]: 3.16 µM
